Source: patent US20250032569A1, “COMPOSITION, IN PARTICULAR COSMETIC FORMULATION, COMPRISING A VERBASCOSIDE EXTRACT” (MEDENA AG, priority 2021, published 2025)

Columns and labels:
[1] = organic (synthetic) chemical sunscreens, Table 1; cited from earlier work
[2] = In vitro spectrophotometric SPF calculated by the Sayre equation (Eq. 1); format: physicochemical
Method: Each sample (1 ml) was placed in a 1 cm quartz cell. The absorbance was measured between 250-600 nm at an interval of every 1 nm using a Varian UV/Vis spectrophotometer (Cary 50 Scan). The following parameters were measured and calculated for each sample assuming standard application to the skin—2 mg/cm^2: • the SPF values. • the critical wavelength λC • the UVA/UVB ratio 1. […]
Each sample (1 ml) was placed in a 1 cm quartz cell. The absorbance was measured between 250-600 nm at an interval of every 1 nm using a Varian UV/Vis spectrophotometer (Cary 50 Scan). The following parameters were measured and calculated for each sample assuming standard application to the skin—2 mg/cm^2: • the SPF values. • the critical wavelength λC • the UVA/UVB ratio
The SPF values in vitro were calculated according to the method described by Sayre et al., (Sayre, R M; Agin, P P; LeVee, G J; Marlowe, E. A comparison of in vivo and in vitro testing of sunscreening formulas, Photochem. Photobiol. 1979, 29, 559-566). The calculation was done using Equation 1: […]
where Ss(λ) is the spectral irradiance, Ser(λ) is the CIE erythema action spectrum and T(λ) is the transmission of the sunscreen. The values of Ss(λ) and Ser(λ) were taken from the literature (B. L. Diffey, J. Robson. A new substrate to measure sunscreen protection factors throughout the ultraviolet spectrum, J. Soc. Cosmet. Chem. 1989, 40, 127-133). […]
SPF values were calculated using Eq. 1 for sun protective cosmetics applied at 2 mg/cm^2 (standard application).
The same methods and equations as in the case of plant extracts were applied.
Solutions of sunscreens at concentrations 0.001% were prepared in duplicate and UV-visible absorption spectra were recorded over the range of 250-600 nm (FIG. 1). On the basis of these spectra, the transmission of the sunscreen (T) was found from monochromatic absorbance values at wavelength λ: T=10^−A(λ).
The SPF in vitro was calculated according to the method described by Sayre et al., (Sayre, R M; Agin, P P; LeVee, G J; Marlowe, E. A comparison of in vivo and in vitro testing of sunscreening formulas, Photochem. Photobiol. 1979, 29, 559-566) following equation 1: […]
where Ss(λ) is the spectral irradiance, Ser(λ) the CIE erythema action spectrum and T(λ) the trans-mission of the sunscreen. Data for Ss(λ) and Ser(λ) are available in the literature (B. L. Diffey, J. Robson. A new substrate to measure sunscreen protection factors throughout the ultraviolet spectrum, J. Soc. Cosmet. Chem. 1989, 40, 127-133).
The SPF values were calculated using Eq 1 with the application conditions 2 mg/cm^2 (Standard application recommended by the European Agency).
The SPF value for lotions were calculated using Eq. 1 for three application conditions at 2 mg/cm^2 (standard application), 2.5 mg/cm^2 and 3 mg/cm^2. In the same Table 22, critical wavelength and the UVA/UVB ratios are shown.

[3] = SPF calculated by modified Sayre method; format: physicochemical
From the text: In the following Table 20, there are SPF values obtained in vitro spectrophotometrically, which have been calculated by a classical Sayre method (Sayre, R M; Agin, P P; LeVee, G J; Marlowe, E. A comparison of in vivo and in vitro testing of sunscreening formulas, Photochem. Photobiol. 1979, 29, 559-566) and modified Sayre method, which gives results similar to those obtained in the in vivo tests recommended by COLIPA.
• (1) For water insoluble chemical filters, the modified Sayre method gives results close to those calculated by Simulator-Calculator (BASF) and the in vivo tests. The Simulator-Calculator uses the modified Sayre method assuming an exponentiation equal to 0.827 (X^0.827). • (2) For water soluble natural filters, the same modified Sayre method would give results close to those obtained by the in vivo tests (predicted by Simulator-Calculator). Examples of Cosmetic Compositions with Fully Natural Sun Protective Factors • 1. Sun protective lotion SPF 50+, high UV-A protection • 2. Sun protective cream SPF 50+, high UV-A protection • 3. Sun protective serum for pregnant and milking women SPF 50+, high UV-A protection • 4. Sun protective milk for babies SPF 50+, high UV-A protection • 5. Sun protective lotion SPF 20-30, high UV-A protection for people with highly sensitive skin E. Analysis of Sun Protective Parameters of Two Lotions and Cream Containing Lippia citriodora Extract with 40% of Verbascoside.

[4] = Critical wavelength (λC) from absorption spectra (Eq. 2); format: physicochemical; details: for critical wavelength: chemical sunscreen, no concentration stated
Method: The Critical Wavelength λC is the wavelength, where the area under the absorbance spectrum for the irradiated product from 290 nm to λC is equal to 90% of the integral value of the absorbance spectrum from 290 to 400 nm and was calculated using Eq. 2:
where A (λ)=monochromatic absorbance values at wavelength λ. The critical wavelength was determined for all samples in order to assess a degree of UVA protection. In cases where the critical wavelength is lower than 370 nm, the protection from UVA is less evident.
The Critical Wavelength λC value for the test product was defined as that wavelength where the area under the absorbance spectrum of the sample from 290 nm to λC is 90% of the integral of the absorbance spectrum from 290 to 400 nm and is calculated using Eq. 2:
[formula] • A(λ)=monochromatic absorbance values at wavelength λ

[5] = UVA/UVB ratio from absorption spectra (Eq. 3) and Boots UVA Star Rating; format: physicochemical; details: for ratio UVA/UVB: chemical sunscreen, no concentration stated
Method: Critical Wavelength (λC) and the UVA/UVB ratios were also calculated from the absorption spectra and were collected in Table 2. […] According to these International indications, aqueous solutions of Haberlea rhodopensis with different concentrations of myconoside can be attributed to the group of good protection (2 UVA Star Rating).
In order to further characterize solutions as skin photo-protectors from UVA, the UVA/UVB ratio was calculated using Eq. 3: […]
In order to characterize the ability of creams to protect skin against UVA the UVA/UVB ratio was calculated using Eq. 3: […]

[6] = UV filter 0.5% in sun protective cosmetic (Table 20)
[7] = UV filter 1.0% in sun protective cosmetic (Table 20)
[8] = UV filter 2.5% in sun protective cosmetic (Table 20)
[9] = UV filter 5% in sun protective cosmetic (Table 20)
[10] = UV filter 10% in sun protective cosmetic (Table 20)
[11] = chemical UV filter 0.5% in sun protective solution (Tables 12-19)
[12] = chemical UV filter 1% in sun protective solution (Tables 12-19)
[13] = chemical UV filter 2.5% in sun protective solution (Tables 12-19)
[14] = chemical UV filter 5% in sun protective solution (Tables 12-19)
[15] = chemical UV filter 10% in sun protective solution (Tables 12-19)
[16] = UV filter 0.5% in sun protective cosmetic
[17] = UV filter 1.0% in sun protective cosmetic
[18] = UV filter 2.5% in sun protective cosmetic
[19] = UV filter 5% in sun protective cosmetic
[20] = UV filter 10% in sun protective cosmetic
[21] = chemical UV filter 0.5% in sun protective solution
[22] = chemical UV filter 1% in sun protective solution
[23] = chemical UV filter 2.5% in sun protective solution
[24] = chemical UV filter 5% in sun protective solution
[25] = chemical UV filter 10% in sun protective solution

| SMILES | Absorbs UV-A [1] | SPF values calculated by the Sayre equation [2, 6] | SPF values calculated by the Sayre equation [2, 7] | SPF values calculated by the Sayre equation [2, 8] | SPF values calculated by the Sayre equation [2, 9] | SPF values [2, 11] | SPF values [2, 12] | SPF values [2, 13] | SPF values [2, 14] | SPF values [2, 15] | SPF values calculated by Modified Sayre [3, 16] | SPF values calculated by Modified Sayre [3, 17] | SPF values calculated by Modified Sayre [3, 18] | SPF values calculated by Modified Sayre [3, 19] | Critical wavelength (λC) [4, 21] | Critical wavelength (λC) [4, 22] | Critical wavelength (λC) [4, 23] | Critical wavelength (λC) [4, 24] | Critical wavelength (λC) [4, 25] | critical wavelength [4] | other results |
| --- | --- | --- | --- | --- | --- | --- | --- | --- | --- | --- | --- | --- | --- | --- | --- | --- | --- | --- | --- | --- | --- |
| CC1(C)C2CCC1(CS(=O)(=O)O)C(=O)C2=Cc1ccc(C=C2C(=O)C3(CS(=O)(=O)O)CCC2C3(C)C)cc1 [Mexoryl SX] | UV-A | – | – | – | – | – | – | – | – | – | – | – | – | – | – | – | – | – | – | – | – |
| Cc1cc(CC(C)C[Si](C)(O[Si](C)(C)C)O[Si](C)(C)C)c(O)c(-n2nc3ccccc3n2)c1 (stereo not shown) [Mexoryl XL] | UV-A | – | – | – | – | – | – | – | – | – | – | – | – | – | – | – | – | – | – | – | Absorbs UV-B [1]: UV-B |
| O=S(=O)([O-])c1cc(S(=O)(=O)O)cc2[nH]c(-c3ccc(-c4nc5c(S(=O)(=O)[O-])cc(S(=O)(=O)O)cc5[nH]4)cc3)nc12.[Na+].[Na+] [Neoheliopan AP] | UV-A | – | – | – | – | – | – | – | – | – | – | – | – | – | – | – | – | – | – | – | – |
| C[C@@H]1O[C@@H](O[C@@H]2[C@@H](O)[C@H](OCCc3ccc(O)c(O)c3)O[C@H](CO)[C@H]2OC(=O)/C=C/c2ccc(O)c(O)c2)[C@H](O)[C@H](O)[C@H]1O [Verbascoside, β-(3′,4′-dihydroxyphenyl)ethyl-O-α-L-rhamnopyranosyl (1->3)-β-D-(4-O-caffeoyl)-glucopyranoside] | – | – | – | – | – | – | – | – | – | – | – | – | – | – | – | – | – | – | – | – | SPF values calculated by the Sayre equation ([2]; verbascoside or its analogues from plant extracts 1.0% in sun protective cosmetic (Table 20)): 3.9; SPF values calculated by the Sayre equation ([2]; verbascoside or its analogues from plant extracts 2.5% in sun protective cosmetic (Table 20)): 23; SPF values calculated by the Sayre equation ([2]; verbascoside or its analogues from plant extracts 5% in sun protective cosmetic (Table 20)): 110; SPF values calculated by the Sayre equation ([2]; verbascoside or its analogues from plant/plant cell culture extracts 0.5% in sun protective cosmetic (Table 20)): 2.0; SPF values calculated by Modified Sayre ([3]; verbascoside or its analogues from plant extracts 0.5% in sun protective cosmetic, SPF = a*X^0.827): 2.2; SPF values calculated by Modified Sayre ([3]; verbascoside or its analogues from plant extracts 1.0% in sun protective cosmetic): 3.9; SPF values calculated by Modified Sayre ([3]; verbascoside or its analogues from plant extracts 2.5% in sun protective cosmetic): 8.3; SPF values calculated by Modified Sayre ([3]; verbascoside or its analogues from plant extracts 5% in sun protective cosmetic): 14.8; SPF values calculated by Modified Sayre ([3]; verbascoside or its analogues from plant extracts 8% in sun protective cosmetic): 22; SPF values calculated by Modified Sayre ([3]; verbascoside or its analogues from plant extracts 10% in sun protective cosmetic): 26; SPF values calculated by Modified Sayre ([3]; verbascoside or its analogues from plant extracts 12% in sun protective cosmetic): 31; SPF values calculated by Modified Sayre ([3]; verbascoside or its analogues from plant extracts 20% in sun protective cosmetic): 52 |
| CCCCC(CC)COC(=O)c1ccc(Nc2nc(Nc3ccc(C(=O)NC(C)(C)C)cc3)nc(Nc3ccc(C(=O)OCC(CC)CCCC)cc3)n2)cc1 (stereo not shown) [diethylhexyl butamido triazone, Diethylhexyl butamido triazone] | – | 3.2 | 9.0 | 39 | 98 | 4.1 | 10 | 23 | 44 | 131 | 3.2 | 4.6 | 7.4 | 10.6 | 337 nm | 337 nm | 337 nm | 337 nm | 337 nm | 337 nm | SPF values calculated by the Sayre equation [2, 10]: 394; SPF values ([2]; chemical UV filter 10% in sun protective solution (Tables 12-19), listed as ethylhexyl butamido triazone): 137; SPF values calculated by Modified Sayre [3, 20]: 15.3 |
| CCCCC(CC)COC(=O)c1ccc(Nc2nc(Nc3ccc(C(=O)OCC(CC)CCCC)cc3)nc(Nc3ccc(C(=O)OCC(CC)CCCC)cc3)n2)cc1 (stereo not shown) [ethylhexyl triazone, Ethylhexyl triazone] | – | 2.8 | 8 | 69 | 389 | 5.2 | 14 | 33 | 74 | 271 | 2.8 | 4.1 | 6.8 | 10.1 | 341 nm | 341 nm | 341 nm | 341 nm | 341 nm | 341 nm | UVA/UVB [5, 21]: 0.21; UVA/UVB [5, 22]: 0.21; UVA/UVB [5, 23]: 0.21; UVA/UVB [5, 24]: 0.21; UVA/UVB [5, 25]: 0.21; ratio UVA/UVB [5]: 0.21; SPF values ([2]; chemical UV filter 2.5% in sun protective solution (Tables 12-19), listed as ethyl hexyl triazone): 44 |
| CCCCC(CC)COC(=O)C(C#N)=C(c1ccccc1)c1ccccc1 (stereo not shown) [octocrylene, Octocrylene] | – | 1.9 | 4 | 13 | 26.5 | 10 | 25 | 42 | 61 | 90 | 1.6 | 2.6 | 4.7 | 7.4 | 342 nm | 342 nm | 342 nm | 342 nm | 342 nm | 342 nm | UVA/UVB [5, 21]: 0.22; UVA/UVB [5, 22]: 0.22; UVA/UVB [5, 23]: 0.22; UVA/UVB [5, 24]: 0.22; UVA/UVB [5, 25]: 0.22; ratio UVA/UVB [5]: 0.22; SPF values calculated by the Sayre equation [2, 10]: 36.8; SPF values calculated by Modified Sayre [3, 20]: 11.7 |
